# Reference: paper PMC4881381, “Subcellular Localization of Galloylated Catechins in Tea Plants [Camellia sinensis (L.) O. Kuntze] Assessed via Immunohistochemistry” (Frontiers in Plant Science, 2016)
# Molecular target: T1, anti-galloylated catechin monoclonal antibody (mAb) P6C2
# T1 construct: whole purified mAb (~150 kDa; 50 kDa heavy and 25 kDa light chains), biotinylated
# Test: bio-layer interferometry (ForteBio Octet Red […], SSA biosensors); direct ELISA
# Assay type: binding
row,Compound,Kd
1,"O=C(O[C@@H]1Cc2c(O)cc(O)cc2O[C@@H]1c1cc(O)c(O)c(O)c1)c1cc(O)c(O)c(O)c1 [EGCG, (-)-epigallocatechin-3-gallate]",9.25 µM
2,"O=C(O[C@@H]1Cc2c(O)cc(O)cc2O[C@@H]1c1ccc(O)c(O)c1)c1cc(O)c(O)c(O)c1 [ECG, (-)-epicatechin-3-gallate]",0.197 µM
